Measurements: patent US20140288323A1, “CYCLOPROPENIMINE CATALYST COMPOSITIONS AND PROCESSES” (THE TRUSTEES OF COLUMBIA UNIVERSITY IN THE CITY OF NEW YORK, priority 2011, published 2014)
Several values for one entry are separate records, joined by “and”; a condition that tells them apart may be missing. Equal values may be shown once. Where a name gives a salt, the structure may show the parent alone. Each block holds one molecule with its values, some of them ahead of it.

Experiments:
[1] = Storage of cyclopropenimine hydrochloride salts at room temperature; type: physicochemical; conditions: stored at room temperature
Method: (§1) tert-Butylamine (1.4 mL, 13.25 mmol, 3.0 equiv) was added to a solution of chlorocyclopropenium salt (Yoshida et al., 1971) (1.640 g, 4.42 mmol, 1.0 equiv) in CH2Cl2 (50 mL). A white precipitate was observed as the reaction mixture was stirred for 48 hours at room temperature. The crude reaction mixture was washed with 1.0 M HCl (3×30 mL), dried with anhydrous sodium sulfate and concentrated in vacuo to yield pure cyclopropenimine hydrochloride salt as a white solid (1.490 g, 97% yield). […] Neutral cyclopropenimine was prepared in situ in CD3CN to be used for pKBH+ estimation. ^1H NMR data was recorded after addition of excess sodium hydride or potassium tert-butoxide to the corresponding cyclopropenimine hydrochloride salt in CD3CN. ^1H NMR (300 MHz, CD3CN) δ 3.60 (m, 4H, NCH(CH3)2), 1.10-1.40 (m, 33H, NC(CH3)3, NCH(CH3)2).
Dicyclohexylamine (93.3 mL, 469.0 mmol, 6.0 equiv) was slowly added to a solution of tetrachlorocyclopropene (9.59 mL, 78.16 mmol, 1.0 equiv) in CH2Cl2 (800 mL) in a 3-liter round bottom flask. A white precipitate formed as the reaction mixture was stirred for a further four hours at room temperature. Next, (S)-2-amino-3-phenylpropan-1-ol (13.0 g, 86.0 mmol, 1.1 equiv) was added in one portion and the reaction mixture was stirred for an additional ten hours. The crude reaction mixture was filtered through a celite plug, then washed with 1.0 M HCl (3×400 mL), dried with anhydrous sodium sulfate and concentrated in vacuo to yield pure cyclopropenimine hydrochloride salt as a white solid (45.0 g, 99% yield). […] 13C NMR (100 MHz, CDCl3) δ 137.8, 129.2, 128.0, 126.2, 116.5, 114.5, 63.7, 61.3, 59.1, 38.4, 32.1, 31.9, 25.4, 24.4. X-Ray quality crystals were obtained by slow condensation of hexanes into a benzene solution of cyclopropenimine hydrochloride salt.
Dicyclohexylamine (1.27 mL, 6.42 mmol, 6.0 equiv) was slowly added to a solution of tetrachlorocyclopropene (0.13 mL, 1.07 mmol, 1.0 equiv) in CH2Cl2 (20 mL) at room temperature. A white precipitate formed as the reaction mixture was stirred for a further four hours. Next, (S)-1-phenylethanamine (0.28 mL, 2.14 mmol, 2.0 equiv) was added in one portion and the reaction mixture was stirred overnight. The crude reaction mixture was filtered through a celite plug, then washed with 1.0 M HCl (3×20 mL), dried with anhydrous sodium sulfate and concentrated in vacuo to yield pure cyclopropenimine hydrochloride salt as a white solid (567 mg, 96% yield).
The crude reaction mixture was washed with 1.0 M HCl (3×10 mL), dried with anhydrous sodium sulfate and concentrated in vacuo to yield pure cyclopropenimine hydrochloride salt as a pale yellow solid (440 mg, 98% yield).

[2] = Rearrangement rate study: storage stability of cyclopropenimine 5 and 5.HCl by 1H NMR; type: physicochemical
Method: Freshly obtained cyclopropenimine 5 was placed in a vial (250 mg per vial) and stored at room temperature and in a −20° C. freezer. Freshly isolated cyclopropenimine hydrochloride salt (250 mg of 5.HCl) was also stored at room temperature. At each time point, a small amount of the solid was removed and its ^1H NMR (CDCl3) was used to measure the ratio of cyclopropenimine to the rearranged product.

[3] = in acetonitrile; Kaljurand et al., 2005; cited from earlier work
[4] = pKBH+ estimation of cyclopropenimine 1 by 1H NMR equilibrium with reference bases in CD3CN; type: physicochemical
Method: The inventors have measured the acidity of the conjugate acid (pKBH+) of cyclopropenimine (compound 1),
These findings confirm for the first time that 2,3-bis(dialkylamino)cyclopropenimines are indeed potent Brønsted bases.
as §1
(§2) Cyclopropenimine hydrochloride (18.2 mg, 0.053 mmol, 1.0 equiv) and 1,8-diazabicycloundec-7-ene (7.9 μl, 0.053 mmol, 1.0 equiv) were dissolved in CD3CN. The ^1H NMR chemical shift of the cyclopropenimine isopropyl groups was used to estimate the equilibrium ratio and equilibrium constant of the reaction. The equilibrium constant was then used, with the known pKBH+ of DBU (Kaljurand et al., 2005), to determine the estimated pKBH+. The experiment was repeated in triplicate. A representative ^1H NMR spectrum of the experiment is included.
as §2, with “(13.8” for “(18.2”, “0.04” for “0.053”, “tert-Butylimino-tri(pyrrolidino)phosphorane (12.5 mg, 0.04” for “1,8-diazabicycloundec-7-ene (7.9 μl, 0.053”, “BTPP” for “DBU”, “triplicate.” for “triplicate. A representative ^1H NMR spectrum of the experiment is included.”

storage stability of the hydrochloride salt [1]: without noticeable decomposition
SMILES: CC(C)N(c1c(N(C(C)C)C(C)C)c1=NC(C)(C)C)C(C)C [1.HCl, 3-(tert-butylimino)-N1,N1,N2,N2-tetraisopropylcycloprop-1-ene-1,2-diamine hydrochloride salt]

storage stability of the hydrochloride salt [1]: without noticeable decomposition
Cyclopropenimine purity (%) ([2]; HCl salt stored at room temperature, 0 days): 100%
Cyclopropenimine purity (%) ([2]; HCl salt stored at room temperature, 2 days): 100%
Cyclopropenimine purity (%) ([2]; HCl salt stored at room temperature, 9 days): 100%
Cyclopropenimine purity (%) ([2]; HCl salt stored at room temperature, 16 days): 100%
Cyclopropenimine purity (%) ([2]; HCl salt stored at room temperature, 23 days): 100%
Cyclopropenimine purity (%) ([2]; HCl salt stored at room temperature, 30 days): 100%
stability of the HCl salt ([2]; at room temperature): indefinitely stable
SMILES: Cl.OC[C@H](Cc1ccccc1)N=c1c(N(C2CCCCC2)C2CCCCC2)c1N(C1CCCCC1)C1CCCCC1 [5.HCl, (S)-2-(2,3-bis(dicyclohexylamino)cycloallylamino)-3-phenylpropan-1-ol hydrochloride salt]

storage stability of the hydrochloride salt [1]: without noticeable decomposition
SMILES: C[C@H](N=c1c(N(C2CCCCC2)C2CCCCC2)c1N(C1CCCCC1)C1CCCCC1)c1ccccc1.Cl [7.HCl, (S)—N1,N1,N2,N2-tetracyclohexyl-3-(1-phenylethylimino)cycloprop-1-ene-1,2-diamine hydrochloride salt]

storage stability of the hydrochloride salt [1]: without noticeable decomposition
SMILES: CC(C)N(c1c(N(C(C)C)C(C)C)c1=N[C@H](CO)Cc1ccccc1)C(C)C.Cl [8.HCl, (S)-2-(2,3-bis(diisopropylamino)cycloallylamino)-3-phenylpropan-1-ol hydrochloride salt]

SMILES: CN(C)C(=NC(C)(C)C)N(C)C [BTMG]
pKBH+ [3]: 23.56

SMILES: CN(C)P(=NC(C)(C)C)(N(C)C)N(C)C [P1-^tBu]
pKBH+ [3]: 26.98

SMILES: C1CN=C2NCCCN2C1 [TBD]
pKBH+ [3]: 26.03

Estimated pKBH+ (CD3CN), BTPP, Average ([4]; average of three trials, BTPP as reference base, CD3CN): 26.96
Estimated pKBH+ (CD3CN), DBU, Average ([4]; average of three trials, DBU as reference base, CD3CN): 26.74
acidity of the conjugate acid (pKBH+) ([4]; in acetonitrile): 26.9
basicity relative to comparable guanidine BTMG ([4]; in acetonitrile): three orders of magnitude more basic
Estimated pKBH+ (CD3CN), BTPP ([4]; single trial, BTPP as reference base, CD3CN): 27.00 and 26.85 and 27.03
Estimated pKBH+ (CD3CN), DBU ([4]; single trial, DBU as reference base, CD3CN): 26.75 and 26.74
SMILES: CC(C)N(c1c(N(C(C)C)C(C)C)c1=NC(C)(C)C)C(C)C [cyclopropenimine 1, 3-(tert-butylimino)-N1,N1,N2,N2-tetraisopropylcycloprop-1-ene-1,2-diamine]

half-life ([2]; neat solid in a vial, pure sample stored at room temperature, followed over 30 days, read-out: t1/2 of conversion to rearranged compound 13 (converted)): ~12 days
Cyclopropenimine purity (%) ([2]; solid stored at rt, 0 days): 100%
Cyclopropenimine purity (%) ([2]; solid stored at rt, 2 days): 78%
Cyclopropenimine purity (%) ([2]; solid stored at rt, 9 days): 57%
Cyclopropenimine purity (%) ([2]; solid stored at rt, 16 days): 39%
Cyclopropenimine purity (%) ([2]; solid stored at rt, 23 days): 25%
Cyclopropenimine purity (%) ([2]; solid stored at rt, 30 days): 5%
Cyclopropenimine purity (%) ([2]; solid stored at −20° C., 0 days): 100%
Cyclopropenimine purity (%) ([2]; solid stored at −20° C., 2 days): 100%
Cyclopropenimine purity (%) ([2]; solid stored at −20° C., 9 days): 98%
Cyclopropenimine purity (%) ([2]; solid stored at −20° C., 16 days): 96%
Cyclopropenimine purity (%) ([2]; solid stored at −20° C., 23 days): 96%
Cyclopropenimine purity (%) ([2]; solid stored at −20° C., 30 days): 94%
sample still intact ([2]; stored at −20° C., after 30 days): 94%
SMILES: OC[C@H](Cc1ccccc1)N=c1c(N(C2CCCCC2)C2CCCCC2)c1N(C1CCCCC1)C1CCCCC1 [cyclopropenimine 5, (S)-2-(2,3-bis(dicyclohexylamino)cycloallylamino)-3-phenylpropan-1-ol]
